Data on 4 molecules can be found in ChEMBL document CHEMBL5370608, “Selective and Bioavailable HDAC6 2-(Difluoromethyl)-1,3,4-oxadiazole Substrate Inhibitors and Modeling of Their Bioactivation Mechanism” (J Med Chem, 2023).

For one data set, the target named is Histone deacetylase 3 (Homo sapiens, UniProt O15379). Put plainly: Inhibition of human recombinant HDAC3 incubated for 10 mins by Spectrophotometric analysis.
The target in a further data set is Histone deacetylase 1 (Homo sapiens, UniProt Q13547). The data set is described as follows: Inhibition of human recombinant HDAC1 incubated for 15 mins by fluorimetry analysis.
Histone deacetylase 1, sequence (Q13547 whole entry): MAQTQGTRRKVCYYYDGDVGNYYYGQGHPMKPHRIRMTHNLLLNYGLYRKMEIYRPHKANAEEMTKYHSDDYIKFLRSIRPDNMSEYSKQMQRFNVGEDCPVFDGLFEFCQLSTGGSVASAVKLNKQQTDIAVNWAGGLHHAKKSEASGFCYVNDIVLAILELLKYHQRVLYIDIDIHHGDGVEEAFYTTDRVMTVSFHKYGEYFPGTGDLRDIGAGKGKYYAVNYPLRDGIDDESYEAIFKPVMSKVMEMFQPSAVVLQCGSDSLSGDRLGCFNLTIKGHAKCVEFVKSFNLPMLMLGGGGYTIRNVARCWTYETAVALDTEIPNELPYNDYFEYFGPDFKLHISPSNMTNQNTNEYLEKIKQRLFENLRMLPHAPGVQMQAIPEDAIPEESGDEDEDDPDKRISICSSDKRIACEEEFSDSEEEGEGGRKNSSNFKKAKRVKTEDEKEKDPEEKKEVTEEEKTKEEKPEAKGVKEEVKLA
A further data set addresses T1, Histone deacetylase 11 (Homo sapiens, UniProt Q96DB2).
T1 sequence (Q96DB2 whole entry): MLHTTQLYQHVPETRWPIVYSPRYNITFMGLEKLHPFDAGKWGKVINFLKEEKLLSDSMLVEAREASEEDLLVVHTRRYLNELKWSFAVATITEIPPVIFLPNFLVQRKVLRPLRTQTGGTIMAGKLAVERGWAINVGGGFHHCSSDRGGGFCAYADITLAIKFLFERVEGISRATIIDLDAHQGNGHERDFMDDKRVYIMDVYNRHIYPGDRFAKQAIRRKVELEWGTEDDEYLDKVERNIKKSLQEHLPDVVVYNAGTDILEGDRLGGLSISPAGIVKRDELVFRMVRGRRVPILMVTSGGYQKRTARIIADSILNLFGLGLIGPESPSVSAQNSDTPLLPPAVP
The data set is described as follows: Inhibition of human recombinant HDAC11 incubated for 30 mins by fluorimetry analysis.

The target in a further data set is T2, Histone deacetylase 8 (Homo sapiens, UniProt Q9BY41).
T2 sequence (Q9BY41 whole entry): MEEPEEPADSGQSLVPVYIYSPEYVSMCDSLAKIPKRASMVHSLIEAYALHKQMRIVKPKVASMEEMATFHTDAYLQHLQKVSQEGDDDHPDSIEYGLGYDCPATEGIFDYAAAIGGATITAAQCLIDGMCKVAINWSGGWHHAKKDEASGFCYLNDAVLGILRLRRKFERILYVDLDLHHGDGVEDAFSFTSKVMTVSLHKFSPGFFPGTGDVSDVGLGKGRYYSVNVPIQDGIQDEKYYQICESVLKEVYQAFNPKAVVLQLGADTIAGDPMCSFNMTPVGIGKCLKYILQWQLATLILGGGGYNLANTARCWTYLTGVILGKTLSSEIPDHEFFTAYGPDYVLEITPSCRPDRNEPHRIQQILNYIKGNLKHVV
Put plainly: Inhibition of human recombinant HDAC8 incubated for 60 mins by fluorimetry analysis.

For the next data set, the target named is Histone deacetylase 4 (Homo sapiens, UniProt P56524). The data set is described as follows: Inhibition of human recombinant HDAC4 incubated for 30 mins by fluorimetry analysis.
Histone deacetylase 4, sequence (P56524 whole entry): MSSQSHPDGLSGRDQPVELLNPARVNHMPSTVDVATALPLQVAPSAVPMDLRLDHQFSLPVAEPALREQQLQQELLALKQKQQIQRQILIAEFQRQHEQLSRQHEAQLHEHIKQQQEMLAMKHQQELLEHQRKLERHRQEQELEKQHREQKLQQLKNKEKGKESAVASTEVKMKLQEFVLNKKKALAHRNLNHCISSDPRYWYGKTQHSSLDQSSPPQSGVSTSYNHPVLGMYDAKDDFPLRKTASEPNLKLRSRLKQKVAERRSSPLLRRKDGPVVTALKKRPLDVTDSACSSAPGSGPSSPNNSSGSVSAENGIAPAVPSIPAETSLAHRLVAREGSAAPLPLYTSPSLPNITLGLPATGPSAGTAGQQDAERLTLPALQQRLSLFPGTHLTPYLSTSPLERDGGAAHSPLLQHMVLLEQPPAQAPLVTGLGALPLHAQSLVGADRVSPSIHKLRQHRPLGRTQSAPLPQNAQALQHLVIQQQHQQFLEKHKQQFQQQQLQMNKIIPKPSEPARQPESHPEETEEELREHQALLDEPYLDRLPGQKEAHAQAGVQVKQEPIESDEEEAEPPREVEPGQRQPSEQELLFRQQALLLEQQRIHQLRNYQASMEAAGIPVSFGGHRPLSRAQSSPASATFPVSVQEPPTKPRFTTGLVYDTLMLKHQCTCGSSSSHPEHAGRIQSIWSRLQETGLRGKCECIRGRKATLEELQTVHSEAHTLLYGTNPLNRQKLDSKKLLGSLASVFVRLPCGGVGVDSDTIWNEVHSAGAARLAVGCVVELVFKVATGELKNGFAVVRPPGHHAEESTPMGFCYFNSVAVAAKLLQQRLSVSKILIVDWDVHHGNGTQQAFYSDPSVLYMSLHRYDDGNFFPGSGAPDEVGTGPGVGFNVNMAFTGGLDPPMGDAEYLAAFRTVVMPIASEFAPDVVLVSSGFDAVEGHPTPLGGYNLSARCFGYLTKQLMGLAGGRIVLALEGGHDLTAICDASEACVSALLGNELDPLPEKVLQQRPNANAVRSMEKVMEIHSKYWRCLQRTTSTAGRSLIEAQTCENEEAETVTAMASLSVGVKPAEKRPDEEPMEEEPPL
Data set [1] can be described thus: Metabolic stability in human liver microsomes assessed as disappearance of parent compound. The data set is classed as ADME, Microsome. To be noted: read-out: CLH.
Data set [2] concerns the target T3, Protein deacetylase HDAC6 (Homo sapiens, UniProt Q9UBN7).
T3 sequence (Q9UBN7 whole entry): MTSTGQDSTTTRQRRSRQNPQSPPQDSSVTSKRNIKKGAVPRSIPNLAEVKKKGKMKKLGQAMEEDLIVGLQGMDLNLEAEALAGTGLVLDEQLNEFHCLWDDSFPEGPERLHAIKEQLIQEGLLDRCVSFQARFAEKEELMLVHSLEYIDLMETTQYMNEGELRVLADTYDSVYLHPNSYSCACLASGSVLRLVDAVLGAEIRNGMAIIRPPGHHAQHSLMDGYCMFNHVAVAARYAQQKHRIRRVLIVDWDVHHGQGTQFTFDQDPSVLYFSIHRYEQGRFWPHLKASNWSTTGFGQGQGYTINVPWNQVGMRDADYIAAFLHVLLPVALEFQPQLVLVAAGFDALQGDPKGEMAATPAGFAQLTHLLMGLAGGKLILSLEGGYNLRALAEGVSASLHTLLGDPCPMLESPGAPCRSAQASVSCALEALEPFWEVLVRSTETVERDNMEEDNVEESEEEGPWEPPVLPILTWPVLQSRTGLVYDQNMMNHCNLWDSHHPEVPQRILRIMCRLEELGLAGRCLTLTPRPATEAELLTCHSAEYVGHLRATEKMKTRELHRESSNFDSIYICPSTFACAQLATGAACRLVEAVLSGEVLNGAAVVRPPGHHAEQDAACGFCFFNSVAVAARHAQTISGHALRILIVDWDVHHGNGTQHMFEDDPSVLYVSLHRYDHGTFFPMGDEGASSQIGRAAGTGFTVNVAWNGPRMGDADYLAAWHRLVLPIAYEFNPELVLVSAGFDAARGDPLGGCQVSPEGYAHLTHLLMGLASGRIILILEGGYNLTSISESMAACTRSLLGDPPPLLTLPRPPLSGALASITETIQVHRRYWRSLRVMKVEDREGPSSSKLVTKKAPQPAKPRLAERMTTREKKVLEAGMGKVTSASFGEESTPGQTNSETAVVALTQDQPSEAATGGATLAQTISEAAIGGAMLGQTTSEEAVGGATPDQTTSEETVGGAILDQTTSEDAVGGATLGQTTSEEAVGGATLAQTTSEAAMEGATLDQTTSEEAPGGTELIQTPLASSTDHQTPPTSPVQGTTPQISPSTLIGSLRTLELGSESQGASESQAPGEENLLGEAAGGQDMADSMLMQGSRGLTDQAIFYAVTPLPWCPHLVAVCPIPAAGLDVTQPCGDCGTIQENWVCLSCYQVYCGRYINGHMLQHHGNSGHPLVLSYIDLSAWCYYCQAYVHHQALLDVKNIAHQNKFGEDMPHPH
Put plainly: Inhibition of full length TEV-cleavable N-terminal His6-tagged human recombinant HDAC6 using Ac-RGK (Ac)-AMC as substrate preincubated for 20 hrs followed by substrate addition and measured after 3 hrs by microplate reader analysis.

For another data set, the target named is Histone deacetylase 5 (Homo sapiens, UniProt Q9UQL6). Put plainly: Inhibition of human recombinant HDAC5 incubated for 30 mins by fluorimetry analysis.
Histone deacetylase 5, sequence (Q9UQL6 whole entry): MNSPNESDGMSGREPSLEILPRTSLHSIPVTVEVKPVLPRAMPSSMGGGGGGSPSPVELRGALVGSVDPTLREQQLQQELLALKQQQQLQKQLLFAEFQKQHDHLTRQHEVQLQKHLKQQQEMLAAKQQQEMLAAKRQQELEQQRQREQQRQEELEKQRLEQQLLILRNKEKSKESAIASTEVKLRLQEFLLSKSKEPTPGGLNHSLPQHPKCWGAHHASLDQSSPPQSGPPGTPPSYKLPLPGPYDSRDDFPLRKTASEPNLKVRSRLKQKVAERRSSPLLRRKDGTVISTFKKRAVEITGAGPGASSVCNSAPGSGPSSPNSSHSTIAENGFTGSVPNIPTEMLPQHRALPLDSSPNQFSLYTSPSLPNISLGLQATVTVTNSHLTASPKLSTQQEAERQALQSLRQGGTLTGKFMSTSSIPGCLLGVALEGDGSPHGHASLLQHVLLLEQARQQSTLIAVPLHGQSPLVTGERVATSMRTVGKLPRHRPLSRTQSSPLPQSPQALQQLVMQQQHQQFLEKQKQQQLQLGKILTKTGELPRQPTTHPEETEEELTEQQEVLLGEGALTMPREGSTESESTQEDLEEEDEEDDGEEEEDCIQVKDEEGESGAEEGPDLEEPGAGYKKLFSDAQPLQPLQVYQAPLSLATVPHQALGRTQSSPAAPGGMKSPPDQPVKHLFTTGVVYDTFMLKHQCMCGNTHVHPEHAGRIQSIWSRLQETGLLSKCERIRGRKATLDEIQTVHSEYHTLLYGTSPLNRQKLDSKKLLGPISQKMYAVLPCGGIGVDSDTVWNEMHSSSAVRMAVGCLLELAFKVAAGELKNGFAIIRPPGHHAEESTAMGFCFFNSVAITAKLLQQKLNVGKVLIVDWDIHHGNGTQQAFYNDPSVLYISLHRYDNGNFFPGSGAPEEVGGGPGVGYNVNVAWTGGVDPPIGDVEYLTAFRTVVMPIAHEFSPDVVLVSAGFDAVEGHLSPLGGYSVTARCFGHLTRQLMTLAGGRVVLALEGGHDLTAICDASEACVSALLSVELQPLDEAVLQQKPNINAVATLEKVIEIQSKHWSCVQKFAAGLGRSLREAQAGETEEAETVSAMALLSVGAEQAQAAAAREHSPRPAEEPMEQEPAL
The next data set deals with Histone deacetylase 2 (Homo sapiens, UniProt Q92769). The data set is described as follows: Inhibition of human recombinant HDAC2 incubated for 15 mins by fluorimetry analysis.
Histone deacetylase 2, sequence (Q92769 whole entry): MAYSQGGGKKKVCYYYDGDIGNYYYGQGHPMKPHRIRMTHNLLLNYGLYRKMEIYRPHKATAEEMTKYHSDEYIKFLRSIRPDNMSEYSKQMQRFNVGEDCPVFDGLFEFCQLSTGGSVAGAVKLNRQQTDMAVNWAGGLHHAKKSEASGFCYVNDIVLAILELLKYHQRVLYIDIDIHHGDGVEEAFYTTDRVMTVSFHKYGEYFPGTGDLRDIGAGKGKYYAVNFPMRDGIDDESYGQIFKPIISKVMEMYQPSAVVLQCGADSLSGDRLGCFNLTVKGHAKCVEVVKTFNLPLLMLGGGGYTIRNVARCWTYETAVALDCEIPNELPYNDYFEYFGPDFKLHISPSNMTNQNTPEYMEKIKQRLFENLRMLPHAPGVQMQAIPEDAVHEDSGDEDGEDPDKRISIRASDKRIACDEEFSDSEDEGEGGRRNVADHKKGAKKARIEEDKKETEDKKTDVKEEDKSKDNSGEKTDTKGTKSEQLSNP

Histone deacetylase 3, sequence (O15379 whole entry): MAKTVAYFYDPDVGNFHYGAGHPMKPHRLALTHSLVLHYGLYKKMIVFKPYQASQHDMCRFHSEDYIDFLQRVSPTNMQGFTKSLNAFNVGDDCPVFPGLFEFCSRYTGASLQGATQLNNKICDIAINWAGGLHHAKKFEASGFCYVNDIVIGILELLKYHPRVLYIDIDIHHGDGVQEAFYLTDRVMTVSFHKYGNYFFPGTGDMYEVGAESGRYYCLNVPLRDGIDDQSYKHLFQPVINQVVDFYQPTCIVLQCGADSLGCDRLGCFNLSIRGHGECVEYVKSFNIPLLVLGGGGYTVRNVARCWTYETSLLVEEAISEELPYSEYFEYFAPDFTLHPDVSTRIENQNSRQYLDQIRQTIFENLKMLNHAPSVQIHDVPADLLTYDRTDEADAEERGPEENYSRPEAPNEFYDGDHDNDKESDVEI

The term IC50 denotes the concentration at which inhibition is half-maximal. Consider `CS(=O)(=O)NCC(Nc1ncc(-c2nnc(C(F)F)o2)cn1)c1ccc(OC(F)(F)F)cc1` (stereo unspecified), for which the IC50 on Histone deacetylase 3 is over 100 µM; on Histone deacetylase 1 it was over 100 µM; on Histone deacetylase 11, over 100 µM; at Histone deacetylase 8, over 100 µM; at Histone deacetylase 4, 14 µM; in data set [2], 0.00158 µM. Further, the IC50 on Histone deacetylase 5 and on Histone deacetylase 2 was over 100 µM in each case. For the same molecule, the microsomal CLint in [1] is under 3 µL/min/mg.

Take `FC(F)c1nnc(-c2ccc(Cn3nnc(-c4ccccn4)n3)nc2)o1`: the IC50 was over 100 µM on Histone deacetylase 3; over 100 µM on Histone deacetylase 1; over 100 µM on Histone deacetylase 11; over 100 µM at Histone deacetylase 8; over 100 µM at Histone deacetylase 4; 0.001 µM in [2]. The IC50 at Histone deacetylase 5 and on Histone deacetylase 2 was over 100 µM in each case. Moreover, in data set [1], the microsomal CLint was under 3 µL/min/mg.

With `COc1ccccc1-c1nnn(Cc2ccc(-c3nnc(C(F)F)o3)cn2)n1`, the IC50 at Histone deacetylase 3 was over 100 µM; on Histone deacetylase 1, over 100 µM; at Histone deacetylase 11 it was over 100 µM; at Histone deacetylase 8 it was over 100 µM; on Histone deacetylase 4, over 100 µM; in data set [2], 0.00158 µM. Also, the IC50 at Histone deacetylase 5 and on Histone deacetylase 2 was over 100 µM in each case. Also, the microsomal CLint in data set [1] was under 3 µL/min/mg.

Take `O=C(NO)c1cnc(NC2(c3ccccc3)CCC(F)(F)CC2)nc1`: the IC50 is 87 µM on Histone deacetylase 3; 17 µM at Histone deacetylase 1; 13 µM at Histone deacetylase 11; 16 µM at Histone deacetylase 8; 12 µM on Histone deacetylase 4; 0.00398 µM in [2]. In addition, the IC50 turned out to be 3.7 µM on Histone deacetylase 5 and 71 µM on Histone deacetylase 2. For the same molecule, the microsomal CLint in data set [1] was under 3 µL/min/mg.
